Several values for one entry are separate records, joined by “and”; a condition that tells them apart may be missing. Equal entries are not always repeated.
System: 885724-159-R-J1-PDC complex spheroid viability
Assay: Anticancer human tumor 885724-159-R-J1-PDC patient-derived pancreatic adenocarcinoma cell line growth inhibition [POLQ]
Conditions: for viability, T/C: stronger effect = lower value; for IC50: curve of compound
Procedure: Multicellular complex tumor spheroid response to Polymerase (POL) inhibitors (novobiocin, ART-558, RP6685) in combination with a variety of drugs and investigational agents in selected tumor cell lines
The POL inhibitors (novobiocin, ART-558, and RP6685) were evaluated both individually and in combination with standard of care and investigational anticancer small molecules within a complex spheroid model of solid tumors. . Complex spheroids include a stromal component modeled by human endothelial cells (HUVEC) and fibroblasts modeled by human mesenchymal stem cells (MSCs). The concentration ranges selected for each drug and investigational agent were based upon clinically achievable concentrations if the clinical Cmax of the agent was known.
Compounds. The drugs and investigational agents: novobiocin (NSC847541), ART-558 (NSC835418), RP-6685 (NSC848927), peposertib (NSC802822), ceralasertib (NSC780249), elimusertib (NSC800525), camonsertib (NSC841442), AZD-1390 (NSC803789), olaparib (NSC753686), talazoparib (NSC767125), rucaparib (NSC756644), sotorasib (NSC818433), MRTX-1133 (NSC836407), SN-38 (NSC673596), topotecan (NSC609699), epotoside (NSC141540), doxorubicin (NSC123127), gemcitabine (NSC613327), 5-fluorouracil (NSC19893), paclitaxel (NSC125973), vemurafenib (NSC761431), MSA-2 (NSC828583), SN-011 (NSC837082), adavosertib (NSC754352), prexasertib (NSC758257), carboplatin (NSC241240) and oxaliplatin (NSC266046), were obtained from the National Cancer Institute (NCI) Developmental Therapeutics Program Chemical Repository (21). The FDA-approved anticancer drug set is available from the Developmental Therapeutics Program at https://dtp.cancer.gov/organization/dscb/obtaining/. […] The stock solutions were prepared in dimethyl sulfoxide (DMSO, Sigma-Aldrich, St. Louis, MO, cat. D2650), except for the platinum compounds which were prepared in saline (Quality Biological, Gaithersburg, MD, cat. 114-055-101), at 800-fold the tested concentration and stored at -70 degrees C prior to their use. All drugs and investigational agents were tested over a range starting from a high concentration at or near the clinical Cmax and decreasing in half-log increments. If the clinical Cmax for an agent had not been determined, the highest concentration tested was 10 microM, except for SN-38, which was tested at a high concentration of 1 microM.
Cell Culture. All cells were maintained in an incubator at 37 degrees C and 5% CO2 with 95% humidity. The PDC lines were cultured according to standard operating procedures established by the NCI PDMR (https://pdmr.cancer.gov). Table 3 of the manuscript, lists the cell lines along with the number of the three cell types plated to form the mct-spheroids and media for tumor cell growth. After thawing, all PDC lines, except 997537-175-T-J1-PDC and 415267-285-R-J2-PDC, were cultured in Matrigel-coated flasks prepared with a working solution of 1X Ham's F-12 nutrient mix, without supplementation (Thermo Fisher Scientific, cat. 11765054), 100 U/mL penicillin-streptomycin (Thermo Fisher Scientific, cat. 15140122), and 2.5% Matrigel (Corning Inc., Corning, NY, cat. 354248) for the first three passages. The two PDC lines 997537-175-T-J1-PDC and 415267-285-R-J2-PDC were cultured on uncoated flasks. The 857933-349-R-J2-PDC line was cultured in 6C/Colon 1B media containing advanced DMEM/F-12 (Thermo Fisher Scientific, cat. 12634028), 10 mM HEPES (Thermo Fisher Scientific, cat. 15630080), 1X GlutaMAX supplement (Thermo Fisher Scientific, cat. 35050061), 0.1 mg/mL primocin (InvivoGen, San Diego, CA, cat. ant-pm-2), 10% defined fetal bovine serum, heat inactivated (HyClone Laboratories Inc., Logan, UT, cat. SH30070.03HI), 50% L-WRN conditioned media (ATCC, cat. CRL-3276), 1.25 mM N-Acetyl-L-cysteine (Sigma-Aldrich, cat. A9165), 10 mM nicotinamide (Sigma-Aldrich, cat. N0636), 1X B-27 supplement (Thermo Fisher Scientific, cat. 17504044), 1X N-2 supplement (Thermo Fisher Scientific, cat. […]
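Also: spheroids exposed to compounds for 7 days.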

Row | SMILES | viability, T/C (compound 0.0316 µM) | viability, T/C (compound 0.1 µM) | viability, T/C (compound 0.316 µM) | viability, T/C (compound 1 µM) | viability, T/C (compound 3.16 µM) | viability, T/C (compound 10 µM) | IC50 | viability, T/C (compound 0.00316 µM) | viability, T/C (compound 0.01 µM) | viability, T/C (compound 0.00949 µM) | viability, T/C (compound 0.03 µM) | viability, T/C (compound 0.0949 µM) | viability, T/C (compound 0.3 µM) | viability, T/C (compound 0.949 µM) | viability, T/C (compound 3 µM) | viability, T/C (compound 0.000316 µM) | viability, T/C (compound 0.001 µM)
1 | C#Cc1c(F)ccc2cc(O)cc(-c3ncc4c(N5CC6CCC(C5)N6)nc(OCC56CCCN5CC(F)C6)nc4c3F)c12 (stereo unspecified) | 106% and 94.3% and 96.4% | 99.8% and 92.7% and 89.8% | 85.4% and 94.8% and 91.8% | 67.7% and 67.8% and 78.2% | 38.5% and 45.1% and 45.6% | 20.5% and 24.2% and 20.4% | 2020 nM and 2370 nM and 2710 nM | – | – | – | – | – | – | – | – | – | –
2 | C=CC(=O)N1CCN(c2nc(=O)n(-c3c(C)ccnc3C(C)C)c3nc(-c4c(O)cccc4F)c(F)cc23)C(C)C1 (stereo unspecified) | 101% and 99.6% and 109% | 87.9% and 97.3% and 91.8% | 95.6% and 105% and 106% | 98.9% and 116% and 108% | 105% and 94.4% and 114% | 90.5% and 92.3% and 86.1% | > 10000 nM | – | – | – | – | – | – | – | – | – | –
3 | C=CCn1c(=O)c2cnc(Nc3ccc(N4CCN(C)CC4)cc3)nc2n1-c1cccc(C(C)(C)O)n1 | 93.3% and 87.4% and 93.7% | 85.1% and 77.1% and 79.6% | 55.8% and 56.4% and 55.1% | 44.7% and 48.3% and 49.7% | – | – | 577 nM and 767 nM and 846 nM | 96.5% and 99.3% and 105% | 95.4% and 94.4% and 90.4% | – | – | – | – | – | – | – | –
4 | CC(=O)O[C@H]1C(=O)[C@@]2(C)[C@H]([C@H](OC(=O)c3ccccc3)[C@]3(O)C[C@H](OC(=O)[C@H](O)[C@@H](NC(=O)c4ccccc4)c4ccccc4)C(C)=C1C3(C)C)[C@]1(OC(C)=O)CO[C@@H]1C[C@@H]2O | – | – | – | – | – | – | > 3000 nM | – | – | 65.2% and 64.9% and 66% | 56.1% and 54% and 50.9% | 56.4% and 63.5% and 54.9% | 63.1% and 64.1% and 57.5% | 67.5% and 71.9% and 63.7% | 68.5% and 70.2% and 60.7% | – | –
5 | CC(C)n1c(=O)n(C)c2cnc3cc(F)c(-c4ccc(OCCCN5CCCCC5)nc4)cc3c21 | 94.5% and 97.2% and 114% | 99.6% and 106% and 103% | 98.5% and 110% and 99.5% | 102% and 97.6% and 97.8% | 93.2% and 94.7% and 105% | 67% and 74.3% and 92.4% | > 10000 nM | – | – | – | – | – | – | – | – | – | –
6 | CC1COCCN1c1cc(-c2ccnn2C)c2ccnc(-c3ccn[nH]3)c2n1 (stereo unspecified) | 73.3% and 80% and 94.5% | 57.2% and 56.3% and 59.7% | 49.6% and 42.2% and 46.3% | 44.4% and 39.4% and 45.7% | 43.7% and 39.8% and 43.8% | 38.9% and 38.2% and 38.7% | 283 nM and 167 nM and 246 nM | – | – | – | – | – | – | – | – | – | –
7 | CC1COCCN1c1cc(C2(O)CC3CCC(C2)O3)c2cnn(-c3ccn[nH]3)c2n1 (stereo unspecified) | 74.4% and 70.9% and 67.4% | 52.9% and 50.4% (2×) | 48.7% and 37.5% and 44.3% | 41.8% and 37.1% and 40.4% | 37.3% and 33.5% and 35.4% | 28.7% and 26.5% and 27.9% | 226 nM and 106 nM and 156 nM | – | – | – | – | – | – | – | – | – | –
8 | CC1COCCN1c1cc(C2(S(C)(=N)=O)CC2)nc(-c2ccnc3[nH]ccc23)n1 (stereo unspecified) | 96.4% and 90.3% and 97.2% | 100% and 94.7% and 97.1% | 93.7% and 85.1% and 88.2% | 73.4% and 67.6% and 74.4% | 55% and 54.6% and 54.8% | 45.8% and 44.7% and 42.3% | 5730 nM and 4930 nM | – | – | – | – | – | – | – | – | – | –
9 | CCCS(=O)(=O)Nc1ccc(F)c(C(=O)c2c[nH]c3ncc(-c4ccc(Cl)cc4)cc23)c1F | 93.7% and 104% and 95.6% | 117% and 108% and 115% | 124% (2×) and 122% | 158% and 146% and 140% | 158% and 144% and 133% | 90.7% and 102% and 68.9% | > 10000 nM | – | – | – | – | – | – | – | – | – | –
10 | CC[C@@]1(O)C(=O)OCc2c1cc1n(c2=O)Cc2cc3c(CN(C)C)c(O)ccc3nc2-1 | 80.4% and 78.2% and 74.8% | 57.3% and 62.5% and 57.7% | – | – | – | – | > 100 nM | 98.8% and 97.1% and 92.2% | 89.7% and 86.8% and 86.5% | – | – | – | – | – | – | 97.3% and 109% and 93.8% | 102% and 92% and 99%
11 | CCc1c2c(nc3ccc(O)cc13)-c1cc3c(c(=O)n1C2)COC(=O)[C@]3(O)CC | 53.4% and 55% and 47.8% | 47.3% and 54.5% and 50.5% | 32% and 33.2% and 35.3% | 5.28% and 5.56% and 4.88% | – | – | 55.4 nM and 88.2 nM and 65.5 nM | 76.2% and 80.4% and 69% | 56% and 61.6% and 54.3% | – | – | – | – | – | – | – | –
12 | CCc1cc2c(N3CCc4c(cc(Cn5ccnc5)cc4-c4cn(C)nc4C(F)(F)F)C3=O)cc(C)nc2c(OC)n1 | 78.8% and 91% and 78.9% | 81.9% and 91.9% and 92.2% | 79.6% and 85.4% and 85.2% | 81.4% and 83.5% and 75.8% | 76.3% and 76.6% and 80.9% | 72.1% and 69.1% and 62.2% | > 10000 nM | – | – | – | – | – | – | – | – | – | –
13 | CCc1cc2c(N3CCc4c(cc(Cn5ccnc5)cc4-c4cn(C)nc4C(F)(F)F)C3=O)ccnc2c(OC)n1 | 93.9% and 86.6% and 89.7% | 80.4% and 79.6% and 85% | 87.7% and 80.6% and 84.8% | 72.1% and 82.8% and 82.3% | 76.9% and 72.9% and 80% | 64.6% and 72.9% and 65% | > 10000 nM | – | – | – | – | – | – | – | – | – | –

From PubChem BioAssay AID1963832 (Molecular Pharmacology Branch, DTP, NCI, 2024)
